Changes are numbered by the printed parent chain. Like-named read-outs stand apart in the source and are kept apart here. Values belong to the compound of their own block, whether it stands above or below them.
Experiments:
COX-1 [1] = biological target: T1, COX-1 (Ovis aries, UniProt P05979); conditions: cited from earlier work
T1 sequence (P05979 25-600): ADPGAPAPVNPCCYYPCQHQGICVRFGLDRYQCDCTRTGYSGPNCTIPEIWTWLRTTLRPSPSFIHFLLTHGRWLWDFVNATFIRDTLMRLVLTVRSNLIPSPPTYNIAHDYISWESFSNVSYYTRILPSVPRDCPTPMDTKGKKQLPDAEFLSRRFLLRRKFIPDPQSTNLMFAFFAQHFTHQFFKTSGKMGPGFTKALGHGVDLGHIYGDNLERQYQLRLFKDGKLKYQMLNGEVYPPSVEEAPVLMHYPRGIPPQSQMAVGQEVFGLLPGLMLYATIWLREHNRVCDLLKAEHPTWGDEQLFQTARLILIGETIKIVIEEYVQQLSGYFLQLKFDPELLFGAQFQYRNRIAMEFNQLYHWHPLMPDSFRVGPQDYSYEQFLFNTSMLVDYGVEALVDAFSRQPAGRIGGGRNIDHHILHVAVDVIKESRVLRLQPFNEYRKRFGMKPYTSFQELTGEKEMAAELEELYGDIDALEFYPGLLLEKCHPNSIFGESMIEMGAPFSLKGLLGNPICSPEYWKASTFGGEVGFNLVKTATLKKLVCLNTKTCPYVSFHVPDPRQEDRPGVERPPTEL

[2] = tested on: rat carageenan footpad edema; assay: Rat carageenan footpad edema model; format: in vivo
Protocol: The first is the rat carageenan footpad model. Maximal edema is obtained in this model 3 hours after carageenan injection.

Sprague-Dawley rats = assay: 14-day daily oral toxicity in Sprague-Dawley rats; format: in vivo; conditions: daily oral 100 mg/kg, at 14 days
[3] = biological target: T2, COX-2 activity in RAW 264.7 murine macrophage cell line (Mus musculus, UniProt Q05769); conditions: LPS-activated RAW 264.7; exogenous arachidonic acid; read-out: IC50 for inhibition of PGD2 synthesis; cited from earlier work
T2 construct: The macrophages were exposed to lipopolysaccharide and γ-interferon to induce COX-2; endogenous in cells
T2 sequence (Q05769 18-604): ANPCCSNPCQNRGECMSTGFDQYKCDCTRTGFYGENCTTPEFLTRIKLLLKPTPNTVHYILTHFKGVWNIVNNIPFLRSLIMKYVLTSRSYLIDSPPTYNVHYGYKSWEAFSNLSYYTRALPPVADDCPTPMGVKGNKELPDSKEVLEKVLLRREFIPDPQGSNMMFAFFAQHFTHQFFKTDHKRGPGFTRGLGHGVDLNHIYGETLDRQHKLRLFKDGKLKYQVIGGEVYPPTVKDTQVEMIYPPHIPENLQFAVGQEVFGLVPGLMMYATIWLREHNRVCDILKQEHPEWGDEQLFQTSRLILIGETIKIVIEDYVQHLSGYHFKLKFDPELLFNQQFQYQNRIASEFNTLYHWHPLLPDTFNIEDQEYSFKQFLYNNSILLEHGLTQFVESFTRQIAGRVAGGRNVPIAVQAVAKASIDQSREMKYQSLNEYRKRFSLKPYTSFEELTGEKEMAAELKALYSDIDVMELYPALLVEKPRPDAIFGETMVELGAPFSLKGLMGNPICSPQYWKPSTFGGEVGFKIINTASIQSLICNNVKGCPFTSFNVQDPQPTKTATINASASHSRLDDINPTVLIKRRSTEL

[4] = tested on: serum thromboxane B2 (COX-1 activity); conditions: cited from earlier work
[5] = tested on: PGE2 in pouch exudate (COX-2 activity); conditions: cited from earlier work
[6] = tested on: HCT-15 colon cancer cells; conditions: HCT-15 cells, do not express COX-2; cited from earlier work
gastric lesions = conditions: rat, in vivo, 100 mg/kg
S516A mutant of COX-2 = biological target: T3, S516A mutant of COX-2 (Homo sapiens, UniProt P35354, S516A); conditions: cited from earlier work
T3 sequence (P35354 18-604 S516A): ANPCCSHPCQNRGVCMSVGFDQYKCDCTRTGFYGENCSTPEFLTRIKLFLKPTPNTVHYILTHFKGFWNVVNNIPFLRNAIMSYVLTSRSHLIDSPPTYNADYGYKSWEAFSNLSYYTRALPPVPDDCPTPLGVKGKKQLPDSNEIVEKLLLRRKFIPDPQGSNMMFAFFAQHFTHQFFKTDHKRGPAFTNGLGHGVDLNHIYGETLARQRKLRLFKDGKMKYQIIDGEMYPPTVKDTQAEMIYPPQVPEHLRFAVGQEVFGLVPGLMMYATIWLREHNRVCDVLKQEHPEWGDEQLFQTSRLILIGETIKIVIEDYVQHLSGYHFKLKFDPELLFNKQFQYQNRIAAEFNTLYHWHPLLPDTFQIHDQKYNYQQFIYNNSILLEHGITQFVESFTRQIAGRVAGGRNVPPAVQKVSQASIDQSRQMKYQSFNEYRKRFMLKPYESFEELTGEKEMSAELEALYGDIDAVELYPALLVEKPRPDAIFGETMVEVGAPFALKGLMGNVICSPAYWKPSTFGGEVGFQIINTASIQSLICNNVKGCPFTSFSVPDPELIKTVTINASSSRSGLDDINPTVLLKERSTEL

HCA-7 colon cancer cells = conditions: HCA-7 cells, express high levels of COX-2; read-out: IC50 growth in soft agar; cited from earlier work
COX-2 [7] = biological target: T4, COX-2 (Homo sapiens, UniProt P35354); conditions: cited from earlier work
T4 sequence (P35354 18-604): T3 sequence (P35354 18-604 S516A) with A499S

[8] = biological target: T2, COX-2 activity in RAW 264.7 murine macrophage cell line; assay: Inhibition of COX-2 activity (PGD2 synthesis) in activated RAW264.7 macrophages; format: cell-based
Source text: Thus, NSAID derivatives that are identified as potentially useful in the methods described herein can be further tested using, for example, the RAW264.7 murine macrophage cell line. These cells are readily available (for example, from the American Type Culture Collection, Manassas, Va., United States of America) and are easily cultured in large numbers. They normally express low levels of COX-1 and very low to undetectable levels of COX-2. Upon exposure to bacterial lipopolysaccharide (LPS), however, COX-2 levels increase dramatically over the ensuing 24 hour period, and the cells produce PGD2 and PGE2 from endogenous arachidonic acid stores (generally, ˜1 nmol/10^7 cells total PG formation). After LPS exposure, the addition of exogenous arachidonic acid results in the formation of additional PGD2 and PGE2 as a result of metabolism by the newly synthesized COX-2.
This system provides a number of approaches for testing the inhibitory potency of COX-2-selective ligands (e.g., inhibitors). In general, following LPS activation, cells can be treated for 30 minutes with the desired concentrations of candidate derivative(s) in DMSO. ^14C-arachidonic acid can be added, and the cells can be incubated for 15 minutes at 37° C. Product formation can be assessed following extraction and TLC separation of the culture medium. Alternatively, the effects of candidate derivatives on PG synthesis from endogenous arachidonic acid can be assessed by incubating cells with desired concentrations of candidate derivatives 30 minutes prior to LPS exposure. Following a 24 hour incubation, medium can be collected and extracted, and the amount of PGD2 and/or PGE2 can be assayed by gas chromatography-mass spectrometry, liquid chromatography-mass spectrometry, or ELISA.
Inhibition of COX-2 Activity in Activated RAW264.7. Protocols for COX-2 inhibition in RAW264.7 cells have been previously described (Kalgutkar et al., 1998b). Briefly, cells (6.2×10^6 cells/T25 flask) were activated with lipopolysaccharide (1 μg/mL) and γ-interferon (10 U/mL) in serum-free DMEM for 7 hours and then treated with inhibitor (0-2 μM) for 30 minutes at 37° C. Exogenous arachidonate metabolism was determined by adding [1-^14C]-arachidonate acid (20 μM) for 15 minutes at 37° C. IC50 values are the average of two independent determinations.
The macrophages were exposed to lipopolysaccharide and γ-interferon to induce COX-2 and then treated with several concentrations of Compound 355.

COX-2 [9] = biological target: T4, COX-2; assay: Inhibition of purified COX-2 by NSAID derivatives (species not stated); format: biochemical; conditions: purified COX-2
Protocol: (§1) While the TLC assay described above provides considerable information, it is labor-intensive for screening large numbers of candidate NSAID derivatives. Accordingly, as an alternative, a simplified assay can be used. Incubation conditions can be essentially as described above, except all candidate derivatives are first screened at a concentration of 1 mM with a preincubation time of 30 minutes. The substrate need not be radiolabeled, and the reaction can be stopped by the addition of 2 μL of formic acid. Product formation can be quantitated by enzyme-linked immunosorbent assay (ELISA) using commercially available kits. […] Other in vitro assay methods for screening NSAID derivatives for activity (e.g., selectivity for the COX-2 enzyme) can also be used by the skilled artisan.

COX-1 [10] = biological target: T1, COX-1; assay: Inhibition of COX-1 by NSAID derivatives (species not stated); format: biochemical
Protocol: as §1

ovine COX-1 = biological target: T5, ovine COX-1 (Ovis aries, UniProt P05979); assay: Inhibition of purified ovine COX-1, TLC assay
T5 sequence (P05979 25-600): T1 sequence (P05979 25-600)
Protocol: (§2) One example of an in vitro screening method takes advantage of the fact that both human and murine recombinant COX-2 can be expressed and isolated in pure form from an Sf-9 cell expression system. Briefly, typical assays involve the incubation of COX-1 (44 nM) or COX-2 (66 nM) in a 200 μL reaction mixture containing 100 mM Tris-HCl, pH 8.0, 500 μM phenol and 50 μM ^14C-arachidonic acid (55 mCi/mmol) for 30 seconds at 37° C. […] The reaction is stopped by the addition of 200 μL of ethanol/methanol/1 M citrate, pH 4.0 (30:4:1). The extracted products are separated by thin layer chromatography (TLC), which allows quantitation of total product formation as well as assessment of product distribution. This assay is useful to define IC50 values for inhibition of either enzyme, and to determine time-dependency of inhibition. It also provides information concerning changes in products formed as a result of inhibition.
(§3) Apoenzyme was reconstituted by the addition of hematin to the assay mixtures. Human COX-2 was expressed in Sf9 insect cells by means of the pVL 1393 expression vector (BD Biosciences Pharmingen, San Diego, Calif., United States of America) and purified by ion exchange and gel filtration chromatography. […]
(§4) IC50 values for the inhibition of purified human COX-2 or ovine COX-1 by test compounds were determined by thin layer chromatography (TLC) radiography. […]

COX-2 [11] = biological target: T4, COX-2; assay: biochemical
Protocol: as §2, §3, §4

[12] = Rattus norvegicus, po, maximal edema 3 hours after carageenan injection, read-out: ED50 inhibition of edema formation
[13] = activated RAW 264.7 cells, read-out: IC50 for inhibition of PGD2 synthesis/production

SMILES: CC(=O)Oc1ccccc1C(=O)O [aspirin]
potency against COX-1 relative to COX-2 (COX-1 [1]): 10-100 times
ED50 [2, 12]: 125 mg/kg

SMILES: CCCCC#CCSc1ccccc1OC(C)=O [APHS, o-(acetoxyphenyl)hept-2-ynyl sulfide]
toxicities by gross or histopathological evaluation (Sprague-Dawley rats): no detectable toxicities
IC50 [3]: 120 nM
effect on serum TXB2 levels ([4]; dose of 5 mg/kg): no effect
reduction of serum TXB2 levels ([4]; dose of 50 mg/kg): 11%
reduction of PGE2 levels in pouch exudate ([5]; dose of 5 mg/kg): 95%
reduction of pouch PGE2 levels ([5]; dose of 50 mg/kg): 100%
effect on growth [6]: no effect
gastric toxicity (gastric lesions): no gastric toxicity
inhibitory effect on S516A mutant of COX-2 (S516A mutant of COX-2): resistant
IC50 (HCA-7 colon cancer cells): 2000 nM
ED50 [2, 12]: 6 mg/kg
selectivity for COX-2 relative to aspirin (COX-2 [7]): 100 times
time to complete inactivation of COX-2 (COX-2 [7]): ≤ 30 min
kinact/Ki (COX-2 [7]; irreversible inactivation of COX-2): ~3000 M⁻¹ s⁻¹

SMILES: COc1ccc2c(c1)c(CC(=O)O)c(C)n2C(=O)c1ccc(Cl)cc1 [indomethacin]
reduction of TXB2 levels ([4]; 2 mg/kg dose): 90%
reduction of PGE2 levels ([5]; 2 mg/kg dose): 100%
ED50 ([2]; rat carageenan footpad model (Example 14), read-out: ED50): 2 mg/kg

SMILES: CSc1ccccc1OC(C)=O [o-(Acetoxyphenyl)methyl sulfide]
inhibitory potency and selectivity for COX-2 (COX-2 [7]): moderate

Next, values leading:

IC50 ([8]; read-out: IC50 for inhibition of COX-2 activity in RAW 264.7 macrophages): 3500 nM
IC50 (COX-2 [9]): 50 nM
IC50 (COX-1 [10]): > 50000 nM
SMILES: COc1ccc2c(c1)c(CC(=O)NCCOC(=O)c1cc(I)cc(I)c1I)c(C)n2C(=O)c1ccc(Cl)cc1 [Compound 5]

IC50 [8, 13]: 500 nM
IC50 (ovine COX-1): > 60000 nM
IC50 (COX-2 [11]): 103 nM
SMILES: COc1ccc2c(c1)c(CC(=O)NCCNC(=O)c1ccc(F)cc1)c(C)n2C(=O)c1ccc(Cl)cc1 [Compound 355, N-(2-{2-[1-(4-Chloro-benzoyl)-5-methoxy-2-methyl-1H-indol-3-yl]-acetylamino}-ethyl)-4-fluoro-benzamide]

IC50 (ovine COX-1): > 60000 nM
IC50 (COX-2 [11]): 100 nM
SMILES: COc1ccc2c(c1)c(CC(=O)Nc1ccc(F)cc1)c(C)n2C(=O)c1ccc(Cl)cc1F [Compound 360, 2-[1-(4-Chloro-2-fluoro-benzoyl)-5-methoxy-2-methyl-1H-indol-3-yl]-N-(4-fluoro-phenyl)-acetamide]

IC50 [8, 13]: 200 nM
IC50 (COX-2 [9]): 80 nM
IC50 (COX-1 [10]): > 65000 nM
SMILES: O=C(c1ccccc1)c1ccc2n1CCC2C(=O)NCc1ccc(F)cc1 (stereo not shown) [Compound 19, p-fluorobenzyl derivative of ketorolac amide]
